From US20240287082A1, “NEW BENZODIAZEPINE DERIVATIVES AS GABA A GAMMA1 PAM” (Hoffmann-La Roche Inc., priority 2021, published 2024) come the findings set out here.

Where two headings read alike, the source gives them in different places.

Assay [1] deals with human GABAA α2β2γ1 receptor (Homo sapiens (Human), UniProt P47869+Q8N1C3). As to the kind of experiment: Radioligand binding assay, competition for [3H]RO7239181, γ1-containing GABAA subtype α2β2γ1. The settings on record: for γ2/γ1 Selectivity Ratio: Ki α1β3γ2 (nM)/Ki α2β2γ1 (nM); for LogSel: Log[Ki α1β3γ2 (nM)/Ki α2β2γ1 (nM)]. The protocol:
(§1) The affinity of compounds at GABAA γ1 subunit-containing receptors was measured by competition for [^3H]RO7239181 (67.3 Ci/mmol; Roche) binding to membranes from HEK293F cells (ThermoFisher R^79007) expressing human (transiently transfected) receptors of composition α5β2γ1, α2β2γ1, α1β2γ1.
(§2) Harvested pellets from HEK293F cells expressing the different GABAA receptor subtypes were resuspended in Mannitol Buffer pH 7.2-7.4 (Mannitol 0.29M, Triethylamine 10 mM, Acetic acid 10 mM, EDTA 1 mM plus protease inhibitors (20 tablets Complete, Roche Diagnostics Cat. No. 05 056 489 001 per liter)), washed two times and then resuspended at 1:10 to 1:15 dilution in the same buffer. Cell disruption was performed by stirring the suspension in a Parr vessel #4637 at 435 psi for 15 minutes, and then the suspensions were centrifuged at 1000×g for 15 minutes at 4° C. (Beckman Avanti J-HC: rotor JS-4.2). The supernatant (S1) was transferred in a 21 Schott flask and the pellet (P1) was resuspended with Mannitol Buffer up to 175 ml. The resuspended pellet was transferred into a 250 ml Corning centrifugal beaker and centrifuged at 1500×g for 10 minutes at 4° C. (Beckman Avanti J-HC: rotor JS-4.2). The supernatant (S1) was then transferred in the 21 Schott flask and the pellet was discarded. The supernatants (S1) were centrifuged in 500 ml Beckman polypropylene centrifugal beaker at 15 000×g for 30 minutes at 4° C. (Beckman Avanti J-20 XP: rotor JLA-10.500). The pellet (P2) was resuspended with Mannitol Buffer 1:1 and frozen at −80° C. The supernatant (S2) was centrifuged in 100 ml Beckman polypropylene centrifugal tubes at 48000×g for 50 minutes at 4° C. (Beckman Avanti J-20 XP: rotor JA-18). The supernatant (S3) was discarded and the pellet (P3) was resuspended with 1:1 Mannitol Buffer. The P2 and P3 protein concentration was determined with the BIORAD Standard assay method with bovine serum albumin as standard and measured on the NANO-Drop 1000. The membrane suspension was aliquots (500 μl per tube) and stored at −80° C. until required.
(§3) Membrane homogenates were resuspended and polytronised (Polytron PT1200E Kinematica AG) in Potassium Phosphate 10 mM, KCl 100 mM binding buffer at pH 7.4 to a final assay concentration determined with a previous experiment.
(§4) Assays were incubated to equilibrium for 1 hour at 4° C. and then, membranes were filtered onto unifilter (96-well white microplate with bonded GF/C filters preincubated 20-50 minutes in 0.3% Polyethylenimine) with a Filtermate 196 harvester (Packard BioScience) and washed 4 times with cold Potassium Phosphate 10 mM pH 7.4, KCl 100 mM binding buffer. After anhydrousing, filter-retained radioactivity was detected by liquid scintillation counting. Ki values were calculated using Excel-Fit (Microsoft) and are the means of two determinations.

Assay [2] addresses human GABAA α5β2γ1 receptor (Homo sapiens (Human), UniProt P31644+Q8N1C3). As to the kind of experiment: Radioligand binding assay, competition for [3H]RO7239181, γ1-containing GABAA subtype α5β2γ1. The protocol: The affinity of compounds at GABAA γ1 subunit-containing receptors was measured by competition for [^3H]RO7239181 (67.3 Ci/mmol; Roche) binding to membranes from HEK293F cells (ThermoFisher R^79007) expressing human (transiently transfected) receptors of composition α5β2γ1, α2β2γ1, α1β2γ1. For better protein expression of the α2 subunit-containing receptors, the 28 amino acid long signal peptide (Met1 to Ala28)of the human GABAA α2 subunit was substituted by the 31 amino acid long signal peptide (Met1 to Ser31) of human GABAA α5 subunit.
as §2, §3
as §4, with “Radioligand binding assays were carried out in a volume of 200 μL (96-well plates) which contained 100 μL of cell membranes, [3H]RO7239181 at a concentration of 1.5 nM (α5β2γ1) or 20-30 nM (α1β2γ1, α2β2γ1) and the test compound in the range of [0.3-1000]×10^−9 M. Nonspecific binding was defined by 10×10^−6 (α5β2γ1) and 30×10^−6 M RO7239181 and typically represented less than 5% (α5β2γ1) and less than 20% (α1β2γ1, α2β2γ1) of the total binding. Assays” for “Assays”

In assay [3] the target is human GABAA α1β3γ2 receptor (Homo sapiens (Human), UniProt P14867+P18507). As to the kind of experiment: Radioligand binding assay, competition for [3H]Flumazenil, γ2-containing GABAA subtype α1β3γ2. As to the method:
The affinity of compounds at GABAA γ2 subunit-containing receptors was measured by competition for [^3H]Flumazenil (81.1 Ci/mmol; Roche) binding to HEK293F cells expressing human (transiently transfected) receptors of composition α1β3γ2.
Harvested pellets from HEK293F cells expressing the different GABAA γ2 receptor subtypes were resuspended in Mannitol Buffer pH 7.2-7.4 and processed as described above for the cells expressing the GABAA γ1 subunit-containing receptors.
Assays were incubated to equilibrium for 1 hour at 4° C. and harvested onto GF/C uni-filters (Packard) by filtration using a Packard harvester and washing with ice-cold wash buffer (50 mM Tris; pH 7.5). After anhydrousing, filter-retained radioactivity was detected by liquid scintillation counting. Ki values were calculated using Excel-Fit (Microsoft) and are the means of two determinations.

Assay [4] has as its target h-GABA-A α2β2γ1 (Homo sapiens (Human), UniProt P47869+Q8N1C3). The assay can be described thus: Two-electrode voltage clamp electrophysiology in Xenopus oocytes expressing GABAA receptors, modulation of GABA EC20 current. It is filed as cell-based. The settings on record: for Efficacy (GABA) %: % modulation of GABA EC20 = 100*(Fold increase−1), compound at 30-fold Ki α2β2γ1; for Fold increase h-GABA-A α2β2γ1 oocyte @ 30-fold Ki: Xenopus oocytes, GABA EC20, test compound at approx. 30-fold its Ki α2β2γ1. The protocol: Xenopus laevis oocytes at maturation stages V-VI were used for the expression of cloned mRNA encoding GABAA receptor subunits. Oocytes ready for RNA micro-injection were bought from Ecocyte, Castrop-Rauxel, Germany and stored in modified Barth's medium (composition in mM: NaCl 88, KCl 1, NaHCO3 2.4, HEPES 10, MgSO4 0.82, CaNO3 0.33, CaCl2 0.33, pH=7.5) at 20° C. until the experiment.
Oocytes were plated in 96-well plates for microinjection using the Roboinject automated instrument (MultiChannelSystems, Reutlingen, Germany). Approximately 50 nL of an aqueous solution containing the RNA transcripts for the subunits of the desired GABAA receptor subtype was injected into each oocyte. […] Oocytes were kept in modified Barth's medium (composition in mM: NaCl 88, KCl 1, NaHCO3 […], HEPES 10, MgSO4 0.82, CaNO3 0.33, CaCl2 0.33, pH=7.5) at 20° C. until the experiment.
Electrophysiological experiments were performed using the Roboocyte instrument (MultiChannelSystems, Reutlingen, Germany) on days 3 to 5 after the micro-injection of mRNA. During the experiment the oocytes were constantly superfused by a solution containing (in mM) NaCl 90, KCl 1, HEPES 5, MgCl2 1, CaCl2 1 (pH 7.4). Oocytes were impaled by two glass microelectrodes (resistance: 0.5-0.8 MΩ) which were filled with a solution containing KCl 1M+K-acetate 1.5 M and voltage-clamped to −80 mV. The recordings were performed at room temperature using the Roboocyte two-electrode voltage clamp system (Multichannelsystem). After an initial equilibration period of 1.5 min GABA was added for 1.5 min at a concentration evoking approximately 20% of a maximal current response (EC20). After another rest interval of 2.5 min GABA was again added evoking a response of similar amplitude and shape. […] Current traces were recorded at a digitization rate of 10 Hz during and shortly before and after the GABA application.
Each compound and concentration was tested on at least 3 oocytes. Different oocytes were used for different compound concentrations.
For the analysis, the digitized current traces of the first and second GABA response were superimposed and, if necessary, rescaled to equal maximal amplitudes. The ratio between the two responses during the time interval of test compound application was calculated point by point. The extremum of the resulting “ratio trace” was taken as the efficacy (“Fold increase”) of the compound expressed as “% modulation of GABA EC20” (100*(Fold increase−1)).
A general note: In two-electrode clamp one electrode senses voltage and the other passes current.

The target in assay [5] is human GABAA α1β2γ1 receptor (Homo sapiens (Human), UniProt P14867+Q8N1C3). The assay can be described thus: Radioligand binding assay, competition for [3H]RO7239181, γ1-containing GABAA subtype α1β2γ1. The settings on record: membranes of HEK293F cells, [3H]RO7239181 20-30 nM, mean of two determinations. The protocol: as §1, §2, §3, §4
The mark [6] stands for this setting: read-out: Ki h-GABAA α2β2γ1, Table 2, membranes of HEK293F cells, [3H]RO7239181.

The term Ki denotes the equilibrium dissociation constant of an inhibitor or competing ligand from its target. For the compound `C[C@@H]1N=C(c2c(F)cccc2F)c2c(ccc(Br)c2Cl)-n2cc(Br)c(=O)nc21` [Example 16, (5S)-2,9-dibromo-8-chloro-7-(2,6-difluorophenyl)-5-methyl-5H-pyrimido[1,2-a][1,4]benzodiazepin-3-one], in assay [1], the Ki stood at 0.0083 µM, the “γ2/γ1 Selectivity Ratio” value amounted to 188.0 and the LogSel stood at 2.27. The compound further had a Ki in assay [2] of 0.0016 µM. In assay [3], the Ki worked out at 1.57 µM. In assay [4], the “Efficacy (GABA) %” value was determined as 71% and the “Fold increase h-GABA-A α2β2γ1 oocyte @ 30-fold Ki” value is listed as 1.71.

As for `O=c1nc2n(cc1Br)-c1ccc(Cl)c(Cl)c1C(c1c(F)cccc1F)=NC2` [Example 5, 2-bromo-8,9-dichloro-7-(2,6-difluorophenyl)-5H-pyrimido[1,2-a][1,4]benzodiazepin-3-one], in assay [1], the Ki stood at 0.0106 µM, the “γ2/γ1 Selectivity Ratio” value worked out at 190.6 and the LogSel was 2.28. Moreover, the Ki in assay [1] (setting [6]) was 0.0106 µM. Besides, the affinity in assay [2], expressed as Ki, was 0.0014 µM. Besides, the affinity in assay [3], expressed as Ki, was 2.02 µM. For the same compound, in assay [4], the “Efficacy (GABA) %” value came out at 78% and the “Fold increase h-GABA-A α2β2γ1 oocyte @ 30-fold Ki” value is recorded as 1.78.

Turning to `O=c1ccn2c(n1)CN=C(c1c(F)cccc1F)c1c-2ccc(Br)c1Cl` [Example 12, 9-bromo-8-chloro-7-(2,6-difluorophenyl)-5H-pyrimido[1,2-a][1,4]benzodiazepin-3-one], in assay [1], the affinity corresponds to a Ki of 0.0046 µM, the “γ2/γ1 Selectivity Ratio” value was found to be 70.5 and the LogSel was found to be 1.85. For the same compound, the Ki in assay [1] (setting [6]) was 0.0046 µM. The affinity in assay [2] corresponds to a Ki of 0.0007 µM. In addition, in assay [3], the affinity, expressed as Ki, was 0.322 µM. In assay [4], the “Efficacy (GABA) %” value came to 65% and the “Fold increase h-GABA-A α2β2γ1 oocyte @ 30-fold Ki” value is 1.65.

Turning to `C[C@@H]1N=C(c2c(F)cccc2F)c2c(ccc(C(F)(F)F)c2Cl)-n2cc(CO)c(=O)nc21` [Example 29, (5S)-8-chloro-7-(2,6-difluorophenyl)-2-(hydroxymethyl)-5-methyl-9-(trifluoromethyl)-5H-pyrimido[1,2-a][1,4]benzodiazepin-3-one], the Ki in assay [5] came to 0.113 µM; in assay [1] (Table 2, membranes of HEK293F cells, [3H]RO7239181, read-out: Ki h-GABAA α2β2γ1) it was 0.0446 µM; in assay [1] (membranes of HEK293F cells, [3H]RO7239181 20-30 nM, mean of two determinations, read-out: Ki h-GABAA α2β2γ1), 0.0446 µM; in assay [2] (membranes of HEK293F cells, [3H]RO7239181 1.5 nM, mean of two determinations, read-out: Ki h-GABAA α5β2γ1), 0.0112 µM; in assay [3] (HEK293F cell membranes, [3H]Flumazenil 1 nM, mean of two determinations, read-out: Ki h-GABAA α1β3γ2), 13.1 µM. Moreover, the “γ2/γ1 Selectivity Ratio” value in assay [1] came to 292.6. Moreover, the LogSel in assay [1] was 2.47.

For `O=c1ccn2c(n1)CN=C(c1c(F)cccc1F)c1c-2ccc(Cl)c1Br` [Example 17, 8-bromo-9-chloro-7-(2,6-difluorophenyl)-5H-pyrimido[1,2-a][1,4]benzodiazepin-3-one], the Ki worked out at 0.0137 µM in assay [1], 0.0137 µM in assay [1] (setting [6]), 0.001 µM in assay [2] and 0.507 µM in assay [3]. The “γ2/γ1 Selectivity Ratio” value in assay [1] amounted to 36.9. For the same compound, in assay [1], the LogSel was 1.57. Further, the “Efficacy (GABA) %” value in assay [4] turned out to be 79%. Further, the “Fold increase h-GABA-A α2β2γ1 oocyte @ 30-fold Ki” value in assay [4] is reported as 1.79.

As to `Cc1cn2c(nc1=O)[C@H](C)N=C(c1c(F)cccc1F)c1c-2ccc(Cl)c1Cl` [Example 7, (5S)-8,9-dichloro-7-(2,6-difluorophenyl)-2,5-dimethyl-5H-pyrimido[1,2-a][1,4]benzodiazepin-3-one], the Ki came to 0.0113 µM in assay [1], 0.0113 µM in assay [1] (setting [6]), 0.0014 µM in assay [2] and 0.695 µM in assay [3]. In addition, in assay [1], the “γ2/γ1 Selectivity Ratio” value stood at 61.2. For the same compound, in assay [1], the LogSel is reported as 1.79. Moreover, the “Efficacy (GABA) %” value in assay [4] is on record as 53%. Further, in assay [4], the “Fold increase h-GABA-A α2β2γ1 oocyte @ 30-fold Ki” value was found to be 1.53.
